Patent US8946439B2, “Amide compounds, compositions and uses thereof” (Evotec AG, priority 2008, dated 2015)
Where two headings read alike, the source gives them in different places.

Columns and labels:
[1] = molecular target: T1, hP2X2/3H (Homo sapiens, UniProt P56373+Q9UBL9); test: Calcium uptake assay (P2X antagonist assay), P2X2/3 heteromer; type: cell-based; conditions: hP2X2/3H
T1 construct: expressed in transfected cells; host or cells: e.g. HEK293 or 1321N1
T1 sequence (Q9UBL9 1-471): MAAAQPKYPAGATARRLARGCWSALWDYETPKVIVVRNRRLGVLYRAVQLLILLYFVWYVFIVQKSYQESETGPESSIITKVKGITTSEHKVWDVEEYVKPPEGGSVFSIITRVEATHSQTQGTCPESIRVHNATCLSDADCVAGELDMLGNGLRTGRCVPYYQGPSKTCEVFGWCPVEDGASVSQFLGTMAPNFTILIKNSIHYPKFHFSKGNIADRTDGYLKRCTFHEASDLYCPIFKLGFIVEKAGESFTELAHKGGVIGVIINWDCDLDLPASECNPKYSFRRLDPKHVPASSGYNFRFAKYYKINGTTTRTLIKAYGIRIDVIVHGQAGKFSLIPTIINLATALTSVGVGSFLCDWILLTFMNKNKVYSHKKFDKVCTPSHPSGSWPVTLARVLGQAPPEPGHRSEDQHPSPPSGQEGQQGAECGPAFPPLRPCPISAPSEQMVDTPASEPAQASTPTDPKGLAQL
T1 sequence (P56373 1-397): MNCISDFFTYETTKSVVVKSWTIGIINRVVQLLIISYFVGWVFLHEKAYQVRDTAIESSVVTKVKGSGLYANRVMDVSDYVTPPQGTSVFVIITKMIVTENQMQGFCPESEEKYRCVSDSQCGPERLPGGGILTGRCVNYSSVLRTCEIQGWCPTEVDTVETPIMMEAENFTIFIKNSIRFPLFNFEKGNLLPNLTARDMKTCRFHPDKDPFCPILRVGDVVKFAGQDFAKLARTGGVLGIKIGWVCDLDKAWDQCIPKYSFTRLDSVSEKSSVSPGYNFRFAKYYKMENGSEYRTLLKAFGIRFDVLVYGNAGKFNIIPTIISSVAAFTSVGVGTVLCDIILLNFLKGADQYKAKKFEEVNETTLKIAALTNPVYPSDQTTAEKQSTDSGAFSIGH
Method in brief: (§1)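 Stably or transiently transfected HEK293 or 1321N1 cells; the heteromer is made by adding P2X3 to a P2X2-stable line, with heteromer function isolated pharmacologically. The peak-minus-baseline FLIPR calcium signal gives % inhibition and a 4-parameter-logistic IC50.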

[2] = molecular target: T2, hP2X3 (Homo sapiens, UniProt P56373); test: Calcium uptake assay (P2X antagonist assay), P2X3 homomer; type: cell-based; conditions: hP2X3
T2 construct: expressed in transfected cells; host or cells: e.g. HEK293 or 1321N1
T2 sequence (P56373 1-397): T1 sequence (P56373 1-397)
Method in brief: as §1

[3] = Ca influx (calcium uptake assay), read-out: IC50 hP2X2/3H
[4] = Ca influx (calcium uptake assay), read-out: IC50 hP2X3
[5] = calcium uptake assay, read-out: IC50 hP2X2/3H (nM), Ca Influx
[6] = calcium uptake assay, read-out: IC50 hP2X3 (nM), Ca Influx

Compound	IC50 [1, 3]	IC50 [2, 4]	IC50 [1, 5]	IC50 [2, 6]
CCS(=O)(=O)c1cc(C(=O)NCc2ccc(C)nc2)cc(-c2ccc(C)cc2)c1 [Compound 211]	< 100 nM	< 100 nM		
Cc1ccc(-c2cc(C(=O)NCc3ccc(C)nc3)cc(C(O)CN3CCN(C)CC3)c2)cc1 (centres unmarked) [Compound 366]	501 to 1000 nM	< 100 nM		
Cc1ccc(-c2cc(OCC3CCCO3)cc(C(=O)N[C@H](C)c3ccc(C)nc3)c2)cc1 (stereo partly drawn) [Compound 310, 4′-Methyl-N—((R)-1-(6-methylpyridin-3-yl)ethyl)-5-((tetrahydrofuran-2-yl)methoxy)biphenyl-3-carboxamide]	< 100 nM	< 100 nM		
Cc1ccc(-c2cc(C(=O)N[C@H](CO)c3ccc(C)nc3)cc(S(C)(=O)=O)c2)cc1 [Compound 257, (S)—N-(2-Hydroxy-1-(6-methylpyridin-3-yl)ethyl)-4′-methyl-5-(methylsulfonyl)biphenyl-3-carboxamide]	< 100 nM	< 100 nM		
Cc1ccc(-c2cc(C(=O)NCc3ccc(C)nc3)cc(S(C)(=O)=O)c2)cc1 [Compound 58, 4′-Methyl-N-((6-methylpyridin-3-yl)methyl)-5-(methylsulfonyl)biphenyl-3-carboxamide]			< 100 nM	< 100 nM
Cc1ccc(-c2cc(OCCO)cc(C(=O)NCc3ccc(C)nc3)c2)cc1 [Compound 301]	100 to 500 nM	< 100 nM		
Cc1ccc(-c2cc(C(=O)NCc3cnc(C)nc3)cc(C(=O)NCc3cnc(C)nc3)c2)cc1 [Compound 16, 4′-Methyl-N3,N5-bis((2-methylpyrimidin-5-yl)methyl)biphenyl-3,5-dicarboxamide]			100 to 500 nM	100 to 500 nM
Cc1ccc(-c2cc(C(=O)NCc3cnc(C(C)C)nc3)cc(C(=O)N3CCCC3)c2)cc1 [Compound 80]			> 1000 nM	501 to 1000 nM
Cc1ccc(-c2cc(C(=O)N[C@@H](C)c3ccc(C)nc3)cc(C(=O)N3CCCC3)c2)cc1 [Compound 177]			> 1000 nM	> 1000 nM
Cc1ccc(-c2cc(C(=O)NC(C)c3ccc4c(c3)OCO4)cc(C(=O)N3CCCC3)c2)cc1 (centres unmarked) [Compound 97]			100 to 500 nM	100 to 500 nM
Cc1ccc(-c2cc(Oc3ncccn3)cc(C(=O)N[C@H](C)c3cnc(C)nc3)c2)c(C#N)c1 [Compound 247]	100 to 500 nM	< 100 nM		
CCCS(=O)(=O)c1cc(C(=O)NCc2cnc(C)nc2)cc(-c2ccc(C)cc2)c1 [Compound 43]			< 100 nM	< 100 nM
Cc1ccc(-c2cc(C(=O)NCc3cnc(C)nc3)cc(C(=O)N3CCCCCC3)c2)cc1 [Compound 19, 5-(Azepane-1-carbonyl)-4′-methyl-N-((2-methylpyrimidin-5-yl)methyl)biphenyl-3-carboxamide]			< 100 nM	< 100 nM
Cc1ccc(-c2cc(C(=O)N[C@H](C)c3cnc(C)nc3)cc(C(O)C(F)(F)F)c2)c(C#N)c1 (some centres unmarked) [Compound 353]	< 100 nM	< 100 nM		
Cc1ccc(-c2cc(C(=O)NCc3cnc(C)nc3)cc(C(=O)N3CCCCC3)c2)cc1 [Compound 18, 4′-Methyl-N-((2-methylpyrimidin-5-yl)methyl)-5-(piperidine-1-carbonyl)biphenyl-3-carboxamide]			< 100 nM	< 100 nM
Cc1ccc(-c2cc(Oc3nccs3)cc(C(=O)N[C@H](C)c3cnc(C)nc3)c2)c(C#N)c1 [Compound 254, (R)-2′-Cyano-4′-methyl-N-(1-(2-methylpyrimidin-5-yl)ethyl)-5-(thiazol-2-yloxy)biphenyl-3-carboxamide]	< 100 nM	< 100 nM		
Cc1ccc(-c2cc(OCC(O)CO)cc(C(=O)N[C@H](C)c3ccc(C)nc3)c2)nc1 (some centres unmarked) [Compound 344]	100 to 500 nM	< 100 nM		
Cc1ccc(-c2cc(Oc3ccccn3)cc(C(=O)N[C@H](C)c3cnc(C)nc3)c2)cc1 [Compound 243]	< 100 nM	100 to 500 nM		
Cc1ccc(-c2cc(C(=O)NCc3cnc(C)cn3)cc(C(=O)N3CCCC3)c2)cc1 [Compound 51]			< 100 nM	< 100 nM
COCCOc1cc(C(=O)N[C@H](C)c2ccc(C)nc2)cc(-c2ccc(C)cc2)c1 [Compound 249]	< 100 nM	< 100 nM		
Cc1ccc(-c2cc(C(=O)NCc3ccc(C)nc3)cc(C(=O)N(C)c3ccncc3)c2)cc1 [Compound 163, N3,4′-Dimethyl-N5-((6-methylpyridin-3-yl)methyl)-N3-(pyridin-4-yl)biphenyl-3,5-dicarboxamide]			100 to 500 nM	< 100 nM
Cc1ccc(-c2cc(C#N)cc(C(=O)NCc3ccc(C)nc3)c2)cc1 [Compound 153]			100 to 500 nM	100 to 500 nM

Compound	IC50 [1, 3]	IC50 [2, 4]	IC50 [1, 5]	IC50 [2, 6]
Cc1ccc(-c2cc(Oc3ncccn3)cc(C(=O)N[C@H](C)c3cnc(C)nc3)c2)nc1 [Compound 273]	501 to 1000 nM	100 to 500 nM		
Cc1ccc(-c2cc(OCC3COCCO3)cc(C(=O)N[C@H](C)c3ccc(C)nc3)c2)nc1 (some centres unmarked) [Compound 332]	100 to 500 nM	< 100 nM		
Cc1ccc(-c2cc(C(=O)NCc3ccc(C)nc3)cc(S(=O)(=O)C(C)C)c2)cc1 [Compound 199]	< 100 nM	< 100 nM		
Cc1ccc(-c2cc(C(=O)NC(C)c3ccc(Cl)c(S(C)(=O)=O)c3)cc(S(C)(=O)=O)c2)cc1 (centres unmarked) [Compound 26]			< 100 nM	< 100 nM
Cc1ccc(-c2cc(C(=O)NCc3ccc(C)nc3)cc(C(=O)N3CCNCC3)c2)cc1 [Compound 124]			100 to 500 nM	< 100 nM
Cc1ccc(-c2cc(CO)cc(C(=O)NCc3ccc(C)nc3)c2)c(C#N)c1 [Compound 306]	100 to 500 nM	< 100 nM		
Cc1ccc(-c2cc(C(=O)N[C@H](C)c3cnn(C)c3Cl)cc(C(=O)N3CCCC3)c2)cc1 [Compound 108, (R)—N-(1-(5-Chloro-1-methyl-1H-pyrazol-4-yl)ethyl)-4′-methyl-5-(pyrrolidine-1-carbonyl)biphenyl-3-carboxamide]			< 100 nM	< 100 nM
Cc1ccc(-c2cc(C(=O)N[C@H](CO)c3cnc(C)nc3)cc(C(=O)N3CCCC3)c2)cc1 [Compound 96]			< 100 nM	< 100 nM
Cc1ccc(-c2cc(C(=O)NCc3cnc(C)nc3)cc(C(=O)N3CCN(C)CC3)c2)cc1 [Compound 25]			100 to 500 nM	< 100 nM
Cc1ccc(-c2cc(C(=O)NCc3ccc(C)nc3)cc(C(O)CN3CC(O)C3)c2)cc1 (centres unmarked) [Compound 388]	100 to 500 nM	< 100 nM		
Cc1ccc(-c2cc(C(=O)NCc3cnc(C)nc3)cc(S(=O)(=O)C(C)C)c2)cc1 [Compound 201]	< 100 nM	< 100 nM		
Cc1ccc(-c2cc(C(=O)N[C@H](CO)c3cnc(C)nc3)cc(S(C)(=O)=O)c2)cc1 [Compound 221, (S)—N-(2-Hydroxy-1-(2-methylpyrimidin-5-yl)ethyl)-4′-methyl-5-(methylsulfonyl)biphenyl-3-carboxamide]	< 100 nM	< 100 nM		
Cc1ccc(-c2cc(C(=O)NCc3cnc(C)nc3)cc(S(C)(=O)=O)c2)c(C#N)c1 [Compound 59]			100 to 500 nM	< 100 nM
CCN(CC)C(=O)c1cc(C(=O)NCc2cnc(C)nc2)cc(-c2ccc(C)cc2)c1 [Compound 170]			100 to 500 nM	< 100 nM
Cc1ccc(-c2cc(OCCO)cc(C(=O)N[C@H](C)c3ccc(C)nc3)c2)c(C#N)c1 [Compound 305]	< 100 nM	< 100 nM		
Cc1ccc(-c2cc(C(=O)N[C@H](C)c3cnc(C)nc3)cc(C(O)c3nccs3)c2)cc1 (some centres unmarked) [Compound 283]	< 100 nM	< 100 nM		
Cc1ccc(-c2cc(OC3CCOC3)cc(C(=O)N[C@H](C)c3cnc(C)nc3)c2)cc1 (some centres unmarked) [Compound 359]	< 100 nM	< 100 nM		
Cc1ccc(-c2cc(C(=O)N[C@H](C)c3ccc(C)nc3)cc(C(O)c3ccccc3)c2)nc1 (some centres unmarked) [Compound 276]	< 100 nM	< 100 nM		
Cc1ccc(-c2cc(C#N)cc(C(=O)NCc3cnc(C)nc3)c2)nc1 [Compound 155]			> 1000 nM	> 1000 nM
Cc1ccc(-c2cc(C(=O)N[C@H](C)c3cnc(C)nc3)cc(C(O)c3ccccc3)c2)c(C#N)c1 (some centres unmarked) [Compound 278]	< 100 nM	< 100 nM		
Cc1ccc(-c2cc(C(=O)NCc3ccc(C)nc3)cc(C(O)CO)c2)c(C#N)c1 (centres unmarked) [Compound 297, 2′-Cyano-5-(1,2-dihydroxyethyl)-4′-methyl-N-((6-methylpyridin-3-yl)methyl)biphenyl-3-carboxamide]	100 to 500 nM	< 100 nM		
